Tests used:
Plasmapora viticola = assay: Grape Downy Mildew control (detached grape leaves); assay type: in vivo; settings: detached Vitis vinifera cultivar Emperor leaves; % disease reduction relative to untreated check plants; concentration not given
Method: Grape Downy Mildew Control
The compounds of the invention were tested for the control of the grape downy mildew organism Plasmapora viticola. Detached leaves, between 70 and 85 mm in diameter, of 7-week-old Vitis vinifera cultivar Emperor grape seedlings were used as hosts. The leaves were sprayed with a solution of the test compound in acetone. The sprayed leaves were dried, inoculated with a spore suspension of the organism, placed in a humid environmental chamber and incubated at 66°-68° F. and about 100% relative humidity. After incubation for 2 days, the plants were then held in a greenhouse for seven to nine days. Afterwards, the amount of disease control was determined. The percent disease control provided by a given test compound was based on the percent disease reduction relative to untreated check plants.

Septoria apii = assay type: in vivo; settings: celery (Utah) plants; % disease reduction relative to untreated check plants; concentration not given
Botrytis cinerea = Botrytis cinerea preventive control on harvested grape berries; assay type: in vivo; settings: grape berries (Emperor)
Method: EXAMPLE 15-Botrytis Cinerea Control
Compound 1 of the invention was tested as a preventive fungicide against Botrytis cinerea on harvested mature grape berries (variety Emperor) by the following procedure: four grape bunches (trimmed to approximately 30 berries) were sprayed with a solution of the test compound in a solution of water, acetone and a small amount of a non-ionic emulsifier. The sprayed grapes were inoculated approximately one day later with 2- to 3-week-old culture of Botrytis cinerea grown on potato dextrose agar plates. The rate of disease incidence was determined 5-10 days after inoculation, when disease symptoms are fully evident on non-treated check grapes. Infection is determined by actual count of the number of infected berries. The percent disease control provided by a test compound was calculated from the percentage disease reduction based on the non-treated check grapes.

[1] = tested on: Alternaria solani conidia; assay: Tomato Early Blight control (tomato seedlings, sprayed then inoculated); assay type: in vivo; settings: 288 h, 250-ppm solution, tomato (Bonny Best), relative to untreated check plants, read-out: % Control TEB (Tomato Early Blight)
Method: Compounds of the invention were tested for the control of the Tomato Early Blight organism, Alternaria solani conidia. Tomato (variety Bonny Best) seedlings of 6 to 7 weeks old were used. The tomato plants were sprayed with a 250-ppm solution of the test compound in an acetone-and-water solution containing a small amount of a non-ionic emulsifier. The sprayed plants were inoculated one day later with the organism, placed in the environmental chamber and incubated at 66°-68° F. and 100% relative humidity for 24 hours. Following the incubation, the plants were maintained in the greenhouse for about 12 days. Percent disease control was based on the percent disease development on untreated check plants.

Rhizoctonia solani = assay: Rhizoctonia mycelial inhibition test; assay type: cell-based; settings: 500 ppm in acetone; 25° C., 24 hours; standard Difolatan; "0" assigned where greater than 1.6 micrograms/cm^2 required for 99% control
Method: Compounds of the present invention were evaluated for effectiveness against Rhizoctonia solani by means of a mycelial inhibition test. This test is designed to measure the fungitoxic activity of fungicidal chemicals in terms of their degree of inhibition of mycelial growth. Each compound to be tested was dissolved in acetone to 500 ppm concentration. Paper strips were infused with the particular mycelium growth (on this case Rhizoctonia solani) by covering the paper with a potato dextrose broth culture of mycelial suspension. The papers were then placed on potato dextrose agar plates and sprayed by means of a microsprayer with the fungicidal solution. The treated paper strips were incubated at 25° C. and data taken after 24 hours. Fungicidal activity is measured by the zone of inhibited mycelial growth from the center of the paper strip. The effectiveness of the compounds tested for fungicidal activity against Rhizoctonia solani is reported in Table III in terms of the [formula] In cases where greater than 1.6 micrograms/cm^2 were required for 99% control, a value of "0" was assigned to the test compound.

[2] = tested on: Phytophthora infestans conidia; assay: whole plant or invertebrate; assay type: in vivo; settings: in Solanum lycopersicum, 168 h, read-out: % Control TLB (Tomato Late Blight)

Structure (SMILES) | % Control Grape DM (Grape Downy Mildew) (Plasmapora viticola) | % Control CLB (Celery Late Blight) (Septoria apii) | Botrytis Prevention (% Control) (Botrytis cinerea; 40 ppm) | Botrytis Prevention (% Control) (Botrytis cinerea; 100 ppm) | Botrytis Prevention (% Control) (Botrytis cinerea; 250 ppm) | pest or weed control at 250 µg/mL [1] | % Control Rhizoc (Rhizoctonia) (Rhizoctonia solani) | pest or weed control at 250 µg/mL [2]
COC(=O)CS(=O)(=O)CC1CC(=O)N(c2cc(Cl)cc(Cl)c2)C1=O (centres unmarked) [Compound 1, N-3,5-dichlorophenyl-2-methoxycarbonylmethylsulfonylmethylsuccinimide] | 81% | 57% | 58% | 52% | 58% | 89% | 0% | 11%
COC(=O)CCS(=O)(=O)CC1CC(=O)N(c2cc(Cl)cc(Cl)c2)C1=O (centres unmarked) [Compound 2] | 71% | 45% |  |  |  | 96% | 0% | 23%
CCOC(=O)CS(=O)(=O)CC1CC(=O)N(c2cc(Cl)cc(Cl)c2)C1=O (centres unmarked) [Compound 3, N-3,5-dichlorophenyl-2-ethoxycarbonylmethylsulfonylmethylsuccinimide] | 23% |  |  |  |  | 85% | 78% | 93%
CCOC(=O)CSCC1CC(=O)N(c2cc(Cl)cc(Cl)c2)C1=O (centres unmarked) [Compound 4, N-3,5-dichlorophenyl-2-ethoxycarbonylmethylthiomethylsuccinimide] | 0% |  |  |  |  | 0% | 0% | 84%
CC(=O)SCC1CC(=O)N(c2cc(Cl)cc(Cl)c2)C1=O (centres unmarked) [Compound 5, N-3,5-dichlorophenyl-2-thioacetylmethylsuccinimide] | 23% | 0% |  |  |  | 57% | 0% | 0%
COC(=O)CSCC1CC(=O)N(c2cc(Cl)cc(Cl)c2)C1=O (centres unmarked) [Compound 6, N-3,5-dichlorophenyl-2-methoxycarbonylmethylthiomethylsuccinimide] | 18% | 50% |  |  |  | 80% | 0% | 39%
COC(=O)CCSCC1CC(=O)N(c2cc(Cl)cc(Cl)c2)C1=O (centres unmarked) [Compound 7] | 97% | 0% |  |  |  | 89% | 0% | 21%
O=C1CC(C2SCCS2)C(=O)N1c1cc(Cl)cc(Cl)c1 (centres unmarked) [Compound 8, N-3,5-dichlorophenyl-2-formylsuccinimide-2-dithioketal] | 18% | 29% |  |  |  | 98% | 30% | 89%
C=CCS(=O)(=O)CC1CC(=O)N(c2cc(Cl)cc(Cl)c2)C1=O (centres unmarked) [Compound 9, N-3,5-dichlorophenyl-2-allylsulfonylmethylsuccinimide] | 57% | 50% |  |  |  | 63% | 80% | 25%
C=C(Cl)CS(=O)(=O)CC1CC(=O)N(c2cc(Cl)cc(Cl)c2)C1=O (centres unmarked) [Compound 10] | 18% | 50% |  |  |  | 83% | 91% | 29%
CC(C)(C)S(=O)(=O)C=C1CC(=O)N(c2cc(Cl)cc(Cl)c2)C1=O [Compound 11, N-3,5-dichlorophenyl-2-t-butylsulfonylmethenylsuccinimide] | 8% | 0% |  |  |  | 0% | 0% | 6%
O=C1CC(=CSc2ccccc2)C(=O)N1c1cc(Cl)cc(Cl)c1 [Compound 12, N-3,5-dichlorophenyl-2-phenylthiomethenylsuccinimide] | 0% | 0% |  |  |  | 0% | 0% | 21%
CCSC=C1CC(=O)N(c2cc(Cl)cc(Cl)c2)C1=O [Compound 13, N-3,5-dichlorophenyl-2-ethylthiomethenylsuccinimide] | 35% | 0% |  |  |  | 94% | 0% | 0%
CC(C)(C)SC=C1CC(=O)N(c2cc(Cl)cc(Cl)c2)C1=O [Compound 14, N-3,5-dichlorophenyl-2-t-butylthiomethenylsuccinimide] | 42% | 57% |  |  |  | 96% | 0% | 67%

Reference: US4487777A (priority 1981, dated 1984)
